# Reference: patent publication US8147891B2, “Use of an acaricidal powder” (SOLVAY (Societe Anonyme), priority 2002, dated 2012)
# Like-named read-outs stand apart in the source and are kept apart here.
# What was measured:
# Acarus siro = settings: after 48 hours; 10 g powder, 50 mites, mean of 3 samples
# Description: (§1) 10 g of sodium bicarbonate powder having a particle size such that 100% of the particles have a diameter of less than 160μ, and at least 95% have a diameter of less than 100μ, were placed at the bottom of a Petri dish. 50 “Acarus siro” wheat mites were then placed on the powder.
# Tyrophagus putrescentiae = settings: after 24 hours; 10 g powder, 50 mites
# Protocol: as §1
# The procedure was carried out as for Example 1, except that “Tyrophagus putrescentiae” cheese mites were used.
# Rhizopertha dominica = settings: 10 g powder, 50 insects
# Description: In this example, a powder comprising 96% of sodium bicarbonate and 4% of amorphous precipitated fumed silica (Aerosil® 200 produced by Degussa) was used. The powder has a particle size such that 100% of the particles have a diameter of less than 160μ and at least 95% have a diameter of less than 100μ.
# (§2) 10 g of powder were placed at the bottom of a Petri dish. 50 “lesser grain borer” insects (Rhizopertha dominica) were then placed on the powder, along with sufficient food to ensure survival for 15 days.
# In Examples 4 and 5, the procedure was carried out as in Example 3, except that, in Example 4, a powder consisting essentially of sodium bicarbonate was used and, in Example 5, a powder consisting essentially of silica (silica gel) was used.
# Sitophilus granarius = tested on: Sitophilus granarius
# Description: as §2
# The effect of various silicas and of a mixture of diatomaceous earth supplemented with 10% of silica gel was also compared.
structure (smiles),measurement,setting,value
"O=C([O-])O.[Na+] [Sodium bicarbonate, sodium bicarbonate]",death of the acarids,Acarus siro,95%
same,death of the acarids,Tyrophagus putrescentiae,100%
same,% mortality,Rhizopertha dominica; 48 h,2%
same,% mortality,Rhizopertha dominica; 72 h,8%
same,% mortality,Rhizopertha dominica; 4 days,15%
same,% mortality,Rhizopertha dominica; 7 days,21%
same,% mortality,Rhizopertha dominica; 10 days,43%
same,% mortality,Rhizopertha dominica; 15 days,91%
same,% mortality,Sitophilus granarius; 24 h,0%
same,% mortality,Sitophilus granarius; 48 h,0%
same,% mortality,Sitophilus granarius; 72 h,1%
same,% mortality,Sitophilus granarius; 4 days,5%
same,% mortality,Sitophilus granarius; 7 days,9%
same,% mortality,Sitophilus granarius; 10 days,55%
same,% mortality,Sitophilus granarius; 15 days,100%
